Assay results published in ChEMBL document CHEMBL4616673 (J Med Chem, 2020).
Converted amounts (≈) assume the structure as drawn.

Key:
[1] = biological target: Dihydroorotate dehydrogenase (quinone), mitochondrial (Homo sapiens, UniProt Q02127); assay: Inhibition of human DHODH using dihydroorotate as substrate and CoQ10 as co-substrate preincubated for 30 mins followed by substrate addition by DCIP coupled microplate reader assay
A-375 = assay: Antiproliferative activity against human A375 cells assessed as reduction in cell viability measured after 48 hrs by MTT assay; assay type: functional, cell-based; details: Homo sapiens, A-375, 48 h
HCT-116 = assay: Antiproliferative activity against human HCT116 cells assessed as reduction in cell viability measured after 48 hrs by MTT assay; assay type: functional, cell-based; details: Homo sapiens, HCT-116, 48 h
HeLa = assay: Antiproliferative activity against human HeLa cells assessed as reduction in cell viability measured after 48 hrs by MTT assay; assay type: functional, cell-based; details: Homo sapiens, HeLa, 48 h
A549 = assay: Antiproliferative activity against human A549 cells assessed as reduction in cell viability measured after 48 hrs by MTT assay; assay type: functional, cell-based; details: Homo sapiens, A549, 48 h
MCF7 = assay: Antiproliferative activity against human MCF7 cells assessed as reduction in cell viability measured after 48 hrs by MTT assay; assay type: functional, cell-based; details: Homo sapiens, MCF7, 48 h
Raji = assay: Antiproliferative activity against human Raji cells assessed as reduction in cell viability measured after 48 hrs by MTT assay; assay type: functional, cell-based; details: Homo sapiens, Raji, 48 h
K562 = assay: Antiproliferative activity against human K562 cells assessed as reduction in cell viability measured after 48 hrs by MTT assay; assay type: functional, cell-based; details: Homo sapiens, K562, 48 h
NAMALVA = assay: Antiproliferative activity against human NAMALWA cells assessed as reduction in cell viability measured after 48 hrs by MTT assay; assay type: functional, cell-based; details: Homo sapiens, NAMALVA, 48 h
[2] = Solubility of the compound in PBS; assay type: physicochemical

Sequence of Dihydroorotate dehydrogenase (quinone), mitochondrial (Q02127 whole entry): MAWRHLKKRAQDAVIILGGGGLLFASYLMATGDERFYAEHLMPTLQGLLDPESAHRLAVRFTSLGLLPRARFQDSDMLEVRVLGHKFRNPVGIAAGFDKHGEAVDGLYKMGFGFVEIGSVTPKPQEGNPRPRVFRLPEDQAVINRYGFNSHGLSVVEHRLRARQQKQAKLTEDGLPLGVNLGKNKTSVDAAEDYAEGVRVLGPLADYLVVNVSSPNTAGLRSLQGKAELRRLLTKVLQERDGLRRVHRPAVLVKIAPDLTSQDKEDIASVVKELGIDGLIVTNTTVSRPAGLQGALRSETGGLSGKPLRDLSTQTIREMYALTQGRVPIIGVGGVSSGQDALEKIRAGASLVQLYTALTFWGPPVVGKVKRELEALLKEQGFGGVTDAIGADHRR

COc1cccc(-c2ccc(-n3nnc4c3C(=O)c3ccccc3C4=O)cc2)c1
IC50 [1]: 0.1 µM

N#Cc1ccccc1-n1nnc2c1C(=O)c1ccccc1C2=O
IC50 [1]: > 1 µM

CC(C)C1CC(=O)c2nnn(-c3cc(F)c(-c4ccccc4F)c(F)c3)c2C1 (stereo unspecified)
IC50 [1]: 0.52 µM

Nc1ccc(-c2ccc(-n3nnc4c3C(=O)c3ccccc3C4=O)cc2)cc1
IC50 [1]: 0.025 µM | IC50 (A-375): 1.9 µM | IC50 (HCT-116): > 10 µM | IC50 (HeLa): > 10 µM | IC50 (A549): > 10 µM | IC50 (MCF7): > 10 µM | IC50 (Raji): > 10 µM | IC50 (K562): 0.24 µM | IC50 (NAMALVA): > 10 µM

O=C1c2ccccc2C(=O)c2c1nnn2-c1cccc(I)c1
IC50 [1]: > 1 µM

O=C1c2ccccc2C(=O)c2c1nnn2-c1cc(F)c(-c2ccc(F)cc2)c(F)c1
IC50 [1]: 0.0069 µM | IC50 (A-375): 1.58 µM | IC50 (HCT-116): 2.25 µM | IC50 (HeLa): > 10 µM | IC50 (A549): > 10 µM | IC50 (MCF7): > 10 µM | IC50 (Raji): > 10 µM | IC50 (K562): > 10 µM | IC50 (NAMALVA): > 10 µM

COc1cc(-n2nnc3c2C(=O)c2ccccc2C3=O)ccc1-c1ccccc1
IC50 [1]: 0.0041 µM | solubility [2]: 15.4 µg/mL (≈ 40.4 µM) | IC50 (A-375): 0.01 µM | IC50 (HCT-116): 0.18 µM | IC50 (HeLa): > 10 µM | IC50 (A549): > 10 µM | IC50 (MCF7): > 10 µM | IC50 (Raji): 0.79 µM | IC50 (K562): 0.21 µM | IC50 (NAMALVA): > 10 µM

COc1cc(-c2ccc(-n3nnc4c3C(=O)c3ccccc3C4=O)cc2)cc(OC)c1OC
IC50 [1]: > 1 µM

O=C1c2ccccc2C(=O)c2c1nnn2-c1cccc(O)c1
IC50 [1]: > 1 µM

O=C1c2cc(F)ccc2C(=O)c2c1nnn2-c1cc(F)c(-c2ccccc2F)c(F)c1
IC50 [1]: 0.098 µM

COc1ccc2c(c1)C(=O)c1c(nnn1-c1cc(F)c(-c3ccccc3F)c(F)c1)C2=O
IC50 [1]: > 1 µM

COc1ccccc1-n1nnc2c1C(=O)c1ccccc1C2=O
IC50 [1]: > 1 µM

Nc1cccc(-n2nnc3c2C(=O)c2ccccc2C3=O)c1
IC50 [1]: > 1 µM

O=C1c2ccc(F)cc2C(=O)c2c1nnn2-c1cc(F)c(-c2ccccc2F)c(F)c1
IC50 [1]: 0.152 µM

COC(=O)c1cccc(-c2ccc(-n3nnc4c3C(=O)c3ccccc3C4=O)cc2)c1
IC50 [1]: 0.55 µM

O=C1c2ccccc2C(=O)c2c1nnn2-c1ccc(N2CCOCC2)nc1
IC50 [1]: > 1 µM

Cc1ccc(-n2nnc3c2C(=O)c2ccccc2C3=O)cc1C(F)(F)F
IC50 [1]: > 1 µM

CC(C)c1ccc(-n2nnc3c2C(=O)c2ccccc2C3=O)cc1
IC50 [1]: 0.56 µM

O=C1c2ccccc2C(=O)c2c1nnn2-c1ccc(Cl)nc1
IC50 [1]: > 1 µM

N#Cc1cccc(-n2nnc3c2C(=O)c2ccccc2C3=O)c1
IC50 [1]: > 1 µM

O=C1c2cc(O)ccc2C(=O)c2c1nnn2-c1cc(F)c(-c2ccccc2F)c(F)c1
IC50 [1]: > 1 µM

Cc1cc(-c2ccc(-n3nnc4c3C(=O)c3ccccc3C4=O)cc2)ccn1
IC50 [1]: > 1 µM

O=C1c2ccccc2C(=O)c2c1nnn2-c1cc(F)c(-c2cccc(F)c2)c(F)c1
IC50 [1]: 0.0027 µM | solubility [2]: < 10 µg/mL | IC50 (A-375): 0.19 µM | IC50 (HCT-116): 0.55 µM | IC50 (HeLa): > 10 µM | IC50 (A549): > 10 µM | IC50 (MCF7): > 10 µM | IC50 (Raji): 1.51 µM | IC50 (K562): > 10 µM | IC50 (NAMALVA): > 10 µM

O=C1c2ccc(O)cc2C(=O)c2c1nnn2-c1cc(F)c(-c2ccccc2F)c(F)c1
IC50 [1]: > 1 µM

CC(C)c1ccc(-c2cc(F)c(-n3nnc4c3C(=O)c3ccccc3C4=O)c(F)c2)cc1
IC50 [1]: > 1 µM

O=C1c2ccccc2C(=O)c2c1nnn2-c1ccc(-c2cccc(O)c2)cc1
IC50 [1]: 0.021 µM | IC50 (A-375): > 10 µM | IC50 (HCT-116): > 10 µM | IC50 (HeLa): > 10 µM | IC50 (A549): > 10 µM | IC50 (MCF7): > 10 µM | IC50 (Raji): 9.04 µM | IC50 (K562): 7.09 µM | IC50 (NAMALVA): > 10 µM

CC1(C)CC(=O)c2nnn(-c3cc(F)c(-c4ccccc4F)c(F)c3)c2C1
IC50 [1]: > 1 µM

O=C1c2ccccc2C(=O)c2c1nnn2-c1ccc2c(c1)OCO2
IC50 [1]: > 1 µM

O=C1c2ccccc2C(=O)c2c1nnn2-c1ccc(-c2cccc(F)c2)cc1
IC50 [1]: 0.056 µM
